Measurements published in patent publication EP0497314A1, “Use of azapirones in attention deficit hyperactivity disorder” (Bristol-Myers Squibb Company, priority 1991, dated 1992).
Where a name gives a salt, the structure may show the parent alone. Marks after values point to notes of the source that are not given here.

What was measured:
rabbit cortex = assay: Quantitative EEG, rabbit cortex, intravenous administration; format: in vivo, rabbits; conditions: for group percent change in electrical energy from pre-drug control, Δ band / mean change ± S.E. in electrical energy from pre-drug control, Δ band: Δ = 0.5-3.5 Hz; for group percent change in electrical energy from pre-drug control, α band / mean change ± S.E. in electrical energy from pre-drug control, α band: α= 7-13 Hz; for group percent change in electrical energy from pre-drug control, β band / mean change ± S.E. in electrical energy from pre-drug control, β band: β= 13-25 Hz; for group percent change in electrical energy from pre-drug control, γ band / mean change ± S.E. in electrical energy from pre-drug control, γ band: γ= 25-40 Hz; for group percent change in electrical energy from pre-drug control, θ band / mean change ± S.E. in electrical energy from pre-drug control, θ band: θ= 3.5-7.0 Hz
Procedure: At least 2 weeks were allowed for recovery before beginning experimentation.
Groups of four animals each were individually restrained and connected to an EEG amplifier and frequency analyzer. The EEG of each animal was recorded on a separate channel. The instrumentation filtered each channel of EEG analog data into five distinct frequency bands: Δ=0.5-3.5 Hz, ϑ=3.5-7.0 Hz, α=7-13 Hz, β=13-25 Hz and γ=25-40 Hz. The EEG analyzer then integrated the filtered waveforms and sent pulses to an associated computer at a rate proportional to the electrical energy of each band. Thus, one computer print-out provided a cortical EEG profile for the entire group of four rabbits.
Data from a one-hour recording period were collected in four 15-minute periods, which provided additional information concerning both onset and time of peak effect of drug activity. However, in this report only the mean activity of the four data collection periods was considered since onset of drug activity was immediate and duration of action was at least one hour for all drugs studied. Drug-induced EEG changes were determined by comparing the post-treatment print-out to the pretreatment control in the same animal and statistical analysis was performed on change from control, in counts, using multiple Student-t paired-comparison tests with p≦0.05 (Table 1). However, for clarity data are also presented as percent change from control (Figures 1 and 2).
All drugs were administered intravenously in saline solution as their respective salts and all dosage calculations were based on the free base. Recording was started immediately after injection and animals were not used more often than once per week. Initial doses were reduced geometrically until a no-effect dose was determined for each drug. However, only the "no-effect" data and the data generated from the next higher dose are presented in this report since the shape of the EEG profile is not dose-related, as opposed to the magnitude of the response which is dose-related.

[1] = test system: fronto-occipital cortex of the cat; assay: Quantitative EEG, fronto-occipital cat cortex, subcutaneous administration; format: in vivo, cats; conditions: for group percent change in electrical energy from pre-drug control, Δ band / mean change ± S.E. in electrical energy from pre-drug control, Δ band / group percent change in electrical energy from pre-drug control, α band / mean change ± S.E. in electrical energy from pre-drug control, α band / group percent change in electrical energy from pre-drug control, β band / mean change ± S.E. in electrical energy from pre-drug control, β band / group percent change in electrical energy from pre-drug control, γ band / mean change ± S.E. in electrical energy from pre-drug control, γ band / group percent change in electrical energy from pre-drug control, θ band / mean change ± S.E. in electrical energy from pre-drug control, θ band: fronto-occipital cat cortex; for group percent change in electrical energy from pre-drug control, Δ band / mean change ± S.E. in electrical energy from pre-drug control, Δ band: Δ = 0.5-3.5 Hz; for group percent change in electrical energy from pre-drug control, α band / mean change ± S.E. in electrical energy from pre-drug control, α band: α= 7-13 Hz; for group percent change in electrical energy from pre-drug control, β band / mean change ± S.E. in electrical energy from pre-drug control, β band: β= 13-25 Hz; for group percent change in electrical energy from pre-drug control, γ band / mean change ± S.E. in electrical energy from pre-drug control, γ band: γ= 25-40 Hz; for group percent change in electrical energy from pre-drug control, θ band / mean change ± S.E. in electrical energy from pre-drug control, θ band: θ= 3.5-7.0 Hz
Excerpt: This unique combination of activity may render buspirone useful in the treatment of childhood hyperkinesis which has been reported to respond to both selected phenothiazine and stimulant drugs. • (b) Adult mongrel female cats weighing 2.5-4.0 kg were implanted with EEG recording electrodes. Recording sites were as follows: fronto-occipital cortex, basal amygdala and ventral hippocampus.
Animals were individually held in canvas feline restraining bags for EEG recording. The EEG of each brain area was recorded on a separate channel. The instrumentation filtered each channel of EEG and analog data into five distinct frequency bands: Δ=0.5-3.5 Hz, ϑ=3.5-7.0 Hz, α=7-13 Hz, β=13-25 Hz and γ=25-40 Hz. The EEG analyzer then integrated the filtered waveforms and sent pulses to an associated computer at a rate proportional to the electrical energy of each band. Data collecting procedures were essentially the same as reported in Example 1. However, groups of six animals each were used and all drugs were administered subcutaneously in saline solution as their respective salts, but all dosages were calculated as the free base. Recording was started 30 minutes after injection to insure adequate drug absorption for peak activity.
Drug-induced EEG changes were determined by comparing the post-treatment data to the pre-treatment control in the same animal. Statistical analysis was performed on change from control, in instrument counts, using multiple Student-t-paired-comparison test with P≦0.05 (Table 2). However, for clarity data are also presented as percent change from control (Figures 3, 4 and 5).
The data in Table 2 are drug-induced changes resulting from the minimum and higher doses of each compound required to elicit the EEG profile characteristic of that particular drug.

[2] = rabbit cortex, 0.125 mg/kg free base i.v.
[3] = rabbit cortex, 0.25 mg/kg free base i.v.

CN(C)CCCN1c2ccccc2Sc2ccc(Cl)cc21 [Chlorpromazine HCl, chlorpromazine]
minimal effective dose (rabbit cortex; Oryctolagus cuniculus, iv, rabbit cortex EEG, dose of free base, read-out: the minimum dose required to produce the EEG profile characteristic of that particular drug): 0.25 mg/kg | relative potency by comparing minimal doses required to elicit EEG profiles (rabbit cortex; rabbit cortex EEG, i.v.): approximately twice as potent as buspirone | the no-effect dose (rabbit cortex; rabbit cortex EEG, dose of free base): 0.125† mg/kg, i.v. | EEG profile (rabbit cortex; rabbit cortex, i.v.): completely different from that produced by stimulant drugs | group percent change in electrical energy from pre-drug control, Δ band (rabbit cortex; [2]): +15% | mean change ± S.E. in electrical energy from pre-drug control, Δ band (rabbit cortex; [2]): +30 ± 17 instrument counts | group percent change in electrical energy from pre-drug control, Δ band (rabbit cortex; [3]): +75% | mean change ± S.E. in electrical energy from pre-drug control, Δ band (rabbit cortex; [3]): +198 ± 51 instrument counts | group percent change in electrical energy from pre-drug control, α band (rabbit cortex; [2]): +14% | mean change ± S.E. in electrical energy from pre-drug control, α band (rabbit cortex; [2]): +21 ± 19 instrument counts | group percent change in electrical energy from pre-drug control, α band (rabbit cortex; [3]): +42% | mean change ± S.E. in electrical energy from pre-drug control, α band (rabbit cortex; [3]): +65 ± 18 instrument counts | group percent change in electrical energy from pre-drug control, β band (rabbit cortex; [2]): +10% | mean change ± S.E. in electrical energy from pre-drug control, β band (rabbit cortex; [2]): +12 ± 11 instrument counts | group percent change in electrical energy from pre-drug control, β band (rabbit cortex; [3]): +30% | mean change ± S.E. in electrical energy from pre-drug control, β band (rabbit cortex; [3]): +42 ± 13 instrument counts | group percent change in electrical energy from pre-drug control, γ band (rabbit cortex; [2]): -3% | mean change ± S.E. in electrical energy from pre-drug control, γ band (rabbit cortex; [2]): -3 ± 2 instrument counts | group percent change in electrical energy from pre-drug control, γ band (rabbit cortex; [3]): +5% | mean change ± S.E. in electrical energy from pre-drug control, γ band (rabbit cortex; [3]): +4 ± 1 instrument counts | group percent change in electrical energy from pre-drug control, θ band (rabbit cortex; [2]): +13% | mean change ± S.E. in electrical energy from pre-drug control, θ band (rabbit cortex; [2]): +20 ± 17 instrument counts | group percent change in electrical energy from pre-drug control, θ band (rabbit cortex; [3]): +33% | mean change ± S.E. in electrical energy from pre-drug control, θ band (rabbit cortex; [3]): +65 ± 22 instrument counts | minimal effective dose ([1]; Felis catus, sc, fronto-occipital cat cortex EEG, dose of free base, read-out: the minimum dose required to produce the EEG profile characteristic of that particular drug): 1 mg/kg | the no-effect dose ([1]; fronto-occipital cat cortex EEG, dose of free base): 0.5† mg/kg, s.c. | group percent change in electrical energy from pre-drug control, Δ band ([1]; 0.5 mg/kg free base s.c.): +6% | mean change ± S.E. in electrical energy from pre-drug control, Δ band ([1]; 0.5 mg/kg free base s.c.): +14 ± 23 instrument counts | group percent change in electrical energy from pre-drug control, Δ band ([1]; 1.0 mg/kg free base s.c.): +25% | mean change ± S.E. in electrical energy from pre-drug control, Δ band ([1]; 1.0 mg/kg free base s.c.): +46 ± 16 instrument counts | group percent change in electrical energy from pre-drug control, Δ band ([1]; 4.0 mg/kg free base s.c.): +56% | mean change ± S.E. in electrical energy from pre-drug control, Δ band ([1]; 4.0 mg/kg free base s.c.): +83 ± 13 instrument counts | group percent change in electrical energy from pre-drug control, α band ([1]; 0.5 mg/kg free base s.c.): +19% | mean change ± S.E. in electrical energy from pre-drug control, α band ([1]; 0.5 mg/kg free base s.c.): +23 ± 14 instrument counts | group percent change in electrical energy from pre-drug control, α band ([1]; 1.0 mg/kg free base s.c.): +25% | mean change ± S.E. in electrical energy from pre-drug control, α band ([1]; 1.0 mg/kg free base s.c.): +33 ± 8 instrument counts | group percent change in electrical energy from pre-drug control, α band ([1]; 4.0 mg/kg free base s.c.): +38% | mean change ± S.E. in electrical energy from pre-drug control, α band ([1]; 4.0 mg/kg free base s.c.): +33 ± 2 instrument counts | group percent change in electrical energy from pre-drug control, β band ([1]; 0.5 mg/kg free base s.c.): +6% | mean change ± S.E. in electrical energy from pre-drug control, β band ([1]; 0.5 mg/kg free base s.c.): +6 ± 5 instrument counts | group percent change in electrical energy from pre-drug control, β band ([1]; 1.0 mg/kg free base s.c.): +9% | mean change ± S.E. in electrical energy from pre-drug control, β band ([1]; 1.0 mg/kg free base s.c.): +13 ± 6 instrument counts | group percent change in electrical energy from pre-drug control, β band ([1]; 4.0 mg/kg free base s.c.): -3% | mean change ± S.E. in electrical energy from pre-drug control, β band ([1]; 4.0 mg/kg free base s.c.): -3 ± 5 instrument counts | group percent change in electrical energy from pre-drug control, γ band ([1]; 0.5 mg/kg free base s.c.): -13% | mean change ± S.E. in electrical energy from pre-drug control, γ band ([1]; 0.5 mg/kg free base s.c.): -10 ± 4 instrument counts | group percent change in electrical energy from pre-drug control, γ band ([1]; 1.0 mg/kg free base s.c.): -10% | mean change ± S.E. in electrical energy from pre-drug control, γ band ([1]; 1.0 mg/kg free base s.c.): -10 ± 5 instrument counts | group percent change in electrical energy from pre-drug control, γ band ([1]; 4.0 mg/kg free base s.c.): -14% | mean change ± S.E. in electrical energy from pre-drug control, γ band ([1]; 4.0 mg/kg free base s.c.): -11 ± 3 instrument counts | group percent change in electrical energy from pre-drug control, θ band ([1]; 0.5 mg/kg free base s.c.): +15% | mean change ± S.E. in electrical energy from pre-drug control, θ band ([1]; 0.5 mg/kg free base s.c.): +22 ± 15 instrument counts | group percent change in electrical energy from pre-drug control, θ band ([1]; 1.0 mg/kg free base s.c.): +20% | mean change ± S.E. in electrical energy from pre-drug control, θ band ([1]; 1.0 mg/kg free base s.c.): +28 ± 10 instrument counts | group percent change in electrical energy from pre-drug control, θ band ([1]; 4.0 mg/kg free base s.c.): +53%
